Data: patent US11607407B2, “Dermal pharmaceutical compositions of 1-methyl-2′,6′-pipecoloxylidide and method of use” (priority 2010, dated 2023)
Read-outs that look alike come from different tables or passages of the source.

Key:
[1] = Effect of formulation pH on flux, Franz-diffusion cell, nylon membrane; format: in vitro ADME; settings: for Total flux: Mepivacaine 10% w/w, HPMC K4M 3% gel
Experimental: The influence of pH on the permeability of mepivacaine HCl from a variety of gel dosage forms was evaluated. The in-vitro drug release from gel formulations was studied across the Nylon 6, 6 membrane (0.22 μm) using Franz-diffusion cell with effective surface area of 3.14 cm^2 and receptor cell volume of 18 mL. The receptor compartment was filled with PBS pH 6.8 and maintained at 37±0.5° C. with constant magnetic stirring. 0.3-0.5 gm of gel was placed on the donor compartment. The samples (1 mL) were collected from the receptor compartment (dilutions made if required) at predetermined time interval for a period of 6-8 h and replaced by equal volume of fresh receptor solution to maintain constant volume. The amount of drug in the samples was assayed spectrophotometrically at 263 nm against appropriate blank. Studies were carried using HPMC K4M 3% as gelling agent with or without containing carvone (0.5%) as a penetration enhancer, so as to assess the effects of pH per se and pH in the presence of penetration enhancers. When Carbopol 3% was used as gelling agent, it gets precipitated out at pH below 5. HPMC gel formulations at pH 8.5 result in precipitation of mepivacaine from the gel. […] The maximum flux was obtained at pH 7.5.

[2] = system: isolated dorsal root ganglion neurons from chick embryos; settings: cited from earlier work
[3] = system: combined HIV viral envelope protein (gp120) and NRTI model of painful HIV-associated peripheral neuropathy; assay: Thermal hyperalgesia, zalcitabine plus gp120 model; format: in vivo, rat; settings: for thermal hyperalgesia, difference from control: p ≤0.05
Source text: (§1) This study evaluated the effects of topical mepivacaine in DMSO painful HIV-associated peripheral neuropathy. HIV peripheral neuropathy in the rat was induced by sciatic nerve exposure to zalcitabine plus gp120.
(§2) Under anesthesia, the left sciatic nerve of male rats was isolated by blunt dissection of the biceps, without damaging the perineurium. The HIV-1 viral envelope protein, gp120 was embedded in a carrier matrix and delivered directly to the sciatic nerve. The muscular layer was closed using 3-0 silk and the skin sealed with veterinarian-grade cyanoacrylate. Rats received intravenous tail injection of zalcitabine.
(§3) A gauze pad was saturated with either mepivacaine in DMSO (vehicle) or vehicle alone and secured to the left plantar hind paw for 5 min. Rats were immediately tested after removal of the pad. Rats were then tested again at 5, 10 and 15 minutes after removal of the pad. Mepivacaine was tested at various concentrations. The treatment assignment was masked. A period of 48 hrs was allowed between retesting of the rats. The continued presence of hyperalgesia in the rats was confirmed by pre-drug application baseline testing on each test day.
(§4) Plantar hind paw response to noxious heat and pressure application was evaluated before and one week following sciatic nerve surgery to confirm onset of hyperalgesia following gp120 administration. Following 15-20 min acclimation in the test chamber, a thermal heat stimulus was aimed at the mid-plantar hind paw as rats stand on a glass surface. The latency to a withdrawal response was recoded electronically. The stimulus intensity was adjusted to result in mean pre-surgical baseline latencies of approximately 12 seconds. Each hind paw was tested once to obtain a hind paw withdrawal latency. Mechanical allodynia was assessed by application of increasing pressure (32 g/sec) to the plantar hind paw over time. The withdrawal threshold (measured in grams) was reached when the rat withdrew its paw from the apparatus. The pre-surgical withdrawal threshold of naïve rats was about 175 g. […]

[4] = cited from earlier work
[5] = in vivo; cited from earlier work
[6] = in vivo; cited from earlier work; remark: listed apart in the source
tail-flick model = assay: Tail-flick assay; format: in vivo, mice; settings: for tail-flick latency, difference from control: p ≤0.05
Experimental: This study evaluated the effects of topical in DMSO mepivacaine in the tail-flick model.
Male mice were maintained on a 12-h light/dark cycle with food and water available ad libitum. Mice were housed in groups of five until testing
Drugs were given topically in DMSO (vehicle) on the tail by immersion of the tail in treatment solution for 5 minutes. Tail-flick latencies were then determined on the region of the tail immersed in the drug, unless otherwise stated. Mice were immediately tested after removal of the tail from the treatment solution and retested at 5 and 10 minutes. Mepivacaine was tested at various concentrations. The treatment assignment was masked.
Analgesia was assessed with the tail-flick assay. Responses were measured by exposing the distal part of the tail to a thermal stimulus, and the latency of exposure was determined. The tail flick latency is the time interval between onset of the heat stimulus and withdrawal of the tail the thermal stimulus. Baseline latencies ranged from 2 to 3 s. Testing was performed immediately after termination of topical administration into the tail and at 5 and 10 minutes thereafter. Antinociception, or analgesia, was defined quantally as an increase in response over baseline.
Statistical analysis was performed and statistical significance was declared if the two-sided p-value was ≤0.05. All computations were performed using SigmaStat™ for Windows™, Version 3.5.

[7] = Solubility of mepivacaine base in formulation solvents; format: physicochemical; settings: 2.5 g in 2.5 g of propylene glycol
Source text: 2.5 g Mepivacaine base was suspended in 2.5 g of propylene glycol.

[8] = system: gp120 model of painful HIV-associated peripheral neuropathy; assay: Thermal hyperalgesia (hind paw withdrawal latency), gp120 model; format: in vivo, rat; settings: for thermal hyperalgesia, difference from control: p ≤0.05
Source text: (§5) This study evaluated the effects of topical mepivacaine in DMSO painful HIV-associated peripheral neuropathy. HIV peripheral neuropathy in the rat was induced by sciatic nerve exposure to gp120.
as §2, with “cyanoacrylate.” for “cyanoacrylate. Rats received intravenous tail injection of zalcitabine.”
as §3
(§6) Plantar hind paw response to noxious heat and pressure application was evaluated before and one week following sciatic nerve surgery to confirm onset of hyperalgesia following gp120 administration. Following 15-20 min acclimation in the test chamber, a thermal heat stimulus was aimed at the mid-plantar hind paw as rats stand on a glass surface. The latency to a withdrawal response was recoded electronically. The stimulus intensity was adjusted to result in mean pre-surgical baseline latencies of approximately 12 seconds. Each hind paw was tested once to obtain a hind paw withdrawal latency. Mechanical allodynia was assessed by application of increasing pressure (32 g/sec) to the plantar hind paw over time. The withdrawal threshold (measured in grams) was reached when the rat withdrew its paw from the apparatus. The pre-surgical withdrawal threshold of naïve rats was about 175 g. Each hind paw was tested once to obtain a hind paw withdrawal threshold. Antinociception, or analgesia, was defined quantally as an increase in response over baseline.
(§7) Statistical analysis for thermal hyperalgesia and mechanical allodynia were performed and statistical significance was declared if the two-sided p-value was ≤0.05. All computations were performed using SigmaStat™ for Windows™, Version 3.5.

[9] = system: gp120 model of painful HIV-associated peripheral neuropathy; assay: Mechanical allodynia (hind paw withdrawal threshold), gp120 model; format: in vivo, rat; settings: for mechanical allodynia, difference from control: p ≤0.05
Source text: as §5
as §2, with “cyanoacrylate.” for “cyanoacrylate. Rats received intravenous tail injection of zalcitabine.”
as §3, §6, §7

[10] = system: combined HIV viral envelope protein (gp120) and NRTI model of painful HIV-associated peripheral neuropathy; assay: Mechanical allodynia, zalcitabine plus gp120 model; format: in vivo, rat; settings: for mechanical allodynia, difference from control: p ≤0.05
Source text: as §1, §2, §3, §4

rat sciatic nerve = settings: cited from earlier work
postherpetic neuralgia = settings: Sindrup and Jensen; cited from earlier work
[11] = topical in DMSO, pad on hind paw 5 min

## Cc1cccc(C)c1NC(=O)C1CCCCN1C.Cl (racemic) [mepivacaine hydrochloride, 2-piperidinecarboxamide, N(2,6-dimethylphenyl)-1-methyl-, monohydrochloride]
[1]; HPMC gels pH 4.5-7.5
  formulation pH at which the maximum flux was obtained: 7.5

## Cc1cccc(C)c1NC(=O)C1CCCCN1C (stereo not drawn) [Mepivacaine, 1-methyl-2′,6′-pipecoloxylidide]
[2]
  IC50 in the growth cone collapse assay, rank among lidocaine, bupivacaine, mepivacaine, ropivacaine: highest
[3]; 2 mg/mL
  thermal hyperalgesia, difference from control: significantly different from control
[3]; 4 mg/mL
  thermal hyperalgesia, difference from control: significantly different from control
[3]; [11]
  antinociceptive effects, section Thermal Hyperalgesia (text says mechanical allodynia): short lived and variable antinociceptive effects
[4]
  solubility in EtOH: 40 g/100 ml
[5]
  irritation or tissue damage: does not ordinarily produce irritation or tissue damage
  methemoglobinemia: does not cause methemoglobinemia
[6]
  administered dose excreted into the bile as metabolites: over 50%
  bound to plasma proteins: approximately 75%
  excreted unchanged in the urine: less than 10%
tail-flick model; 4 mg/mL
  tail-flick latency, difference from control: significantly different from control
tail-flick model; 8 mg/mL
  tail-flick latency, difference from control: significantly different from control
tail-flick model; tail immersed 5 minutes in DMSO solution
  analgesia in tail-flick assay: short lived and variable analgesia
[7]
  solubility in propylene glycol: not sufficiently soluble
[8]; 2 mg/mL
  thermal hyperalgesia, difference from control: significantly different from control
[8]; 4 mg/mL
  thermal hyperalgesia, difference from control: significantly different from control
[8]; 8 mg/mL
  thermal hyperalgesia, difference from control: significantly different from control
[8]; [11]
  antinociceptive effects for thermal hyperalgesia: short lived and variable antinociceptive effects
[9]; 2 mg/mL in DMSO
  mechanical allodynia, difference from control: significantly different from control
[9]; 4 mg/mL in DMSO
  mechanical allodynia, difference from control: significantly different from control
[9]; 8 mg/mL in DMSO
  mechanical allodynia, difference from control: significantly different from control
[9]; [11]
  antinociceptive effects for mechanical allodynia: short lived and variable antinociceptive effects
[1]; carvone 0.5% w/w, pH 4.5
  Total flux: 0.4251 mg/cm^2/hr
[1]; carvone 0.5% w/w, pH 5.5
  Total flux: 0.5847 mg/cm^2/hr
[1]; carvone 0.5% w/w, pH 6.8
  Total flux: 0.7245 mg/cm^2/hr
[1]; carvone 0.5% w/w, pH 7.5
  Total flux: 0.8035 mg/cm^2/hr
[1]; no carvone, pH 4.5
  Total flux: 0.4095 mg/cm^2/hr
[1]; no carvone, pH 5.5
  Total flux: 0.6000 mg/cm^2/hr
[1]; no carvone, pH 6.8
  Total flux: 0.7531 mg/cm^2/hr
[1]; no carvone, pH 7.5
  Total flux: 0.7442 mg/cm^2/hr
[10]; 2 mg/mL
  mechanical allodynia, difference from control: significantly different from control
[10]; 4 mg/mL
  mechanical allodynia, difference from control: significantly different from control
[10]; [11]
  antinociceptive effects for mechanical allodynia: short lived and variable antinociceptive effects

## CCCCN1CCCCC1C(=O)Nc1c(C)cccc1C (stereo not drawn) [bupivacaine]
Rat sciatic nerve; 0.75% (23.1 mM)
  neuronal damage in rat sciatic nerve: do not

## CCN(CC)CC(=O)Nc1c(C)cccc1C [lidocaine]
[2]
  IC50 in the growth cone collapse assay, rank among lidocaine, bupivacaine, mepivacaine, ropivacaine: lowest
Rat sciatic nerve; 80 mM (2.17%)
  neuronal damage in rat sciatic nerve: induced neuronal damage

## COc1ccc2c3c1O[C@H]1C(=O)CC[C@@]4(O)[C@@H](C2)N(C)CC[C@]314 [oxycodone]
Postherpetic neuralgia
  NNT values in postherpetic neuralgia: 2.5

## COc1cc(CNC(=O)CCCC/C=C/C(C)C)ccc1O [topical capsaicin, capsaicin]
Postherpetic neuralgia
  NNT values in postherpetic neuralgia: 5.3
